From ChEMBL document CHEMBL1201862, “PubChem BioAssay data set” (2004) come the findings set out here.

Calls of active or inactive are those of the source. Where only a bound is given, the exact number is not on record here.

Experiment [1] concerns the target T1, Corticotropin-releasing factor receptor 2/Corticotropin-releasing factor-binding protein (Homo sapiens, UniProt P24387+Q13324).
T1 sequence (Q13324 whole entry): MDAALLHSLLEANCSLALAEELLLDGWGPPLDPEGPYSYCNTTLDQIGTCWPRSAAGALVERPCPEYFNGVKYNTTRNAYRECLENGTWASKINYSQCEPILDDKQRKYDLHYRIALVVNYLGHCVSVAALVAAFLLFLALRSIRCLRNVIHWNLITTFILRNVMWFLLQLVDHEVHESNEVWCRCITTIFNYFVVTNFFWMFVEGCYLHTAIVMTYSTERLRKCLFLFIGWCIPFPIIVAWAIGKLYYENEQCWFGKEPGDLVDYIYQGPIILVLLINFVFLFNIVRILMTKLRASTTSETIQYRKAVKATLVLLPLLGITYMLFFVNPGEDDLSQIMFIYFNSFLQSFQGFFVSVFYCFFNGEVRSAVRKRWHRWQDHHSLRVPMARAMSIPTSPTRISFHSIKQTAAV
T1 sequence (P24387 whole entry): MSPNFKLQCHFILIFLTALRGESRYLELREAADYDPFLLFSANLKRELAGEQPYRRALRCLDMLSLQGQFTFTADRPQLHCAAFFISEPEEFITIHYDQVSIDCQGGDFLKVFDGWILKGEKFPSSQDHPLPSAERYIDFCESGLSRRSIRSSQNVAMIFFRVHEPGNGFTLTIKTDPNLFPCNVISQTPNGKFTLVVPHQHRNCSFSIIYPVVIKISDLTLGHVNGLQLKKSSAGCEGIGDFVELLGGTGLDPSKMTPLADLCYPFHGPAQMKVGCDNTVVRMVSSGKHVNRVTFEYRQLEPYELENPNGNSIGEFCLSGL
The experiment is described as follows: activators of CRF receptor 2 with binding protein – uHTS hits, confirmation (AID 602473). It is filed as functional. The conditions noted are these: read-out: EC50_Mean.

The nature of experiment [2]: CRF-BP/CRF-R2 complex antagonists, dose response, cell-based, uHTS hits, 384-well (AID 651639). The conditions noted are these: read-out: IC50_Mean. It is filed as functional, Homo sapiens.
The target of experiment [3] is T1, Corticotropin-releasing factor receptor 2/Corticotropin-releasing factor-binding protein. Put plainly: Dose Response confirmation of uHTS hits for small molecule antagonists of the CRF-binding protein and CRF-R2 receptor complex. It is filed as functional. The conditions noted are these: read-out: IC50_Mean.
For experiment [4], the target named is Envelope glycoprotein gp160 (Human immunodeficiency virus 1, UniProt Q6QLK5). The experiment is described as follows: inhibitors of HIV fusion peptide binding, primary screen, biochemical, uHTS, fluorescence dequenching (AID 1986).
Another experiment deals with H4. Put plainly: Luminescence Cell-Based Dose Response HTS to Identify Activators of 5'UTR Stem-Loop Driven Prion Protein mRNA Translation in H4 Neuroglioblastoma Cells. [Related pubchem assays: 1829 (Project Summary), 1814 (Primary HTS)]. The conditions noted are these: Homo sapiens. It is filed as functional.
Experiment [5] in a line: Luminescence Cell-Based Dose Confirmation HTS to Identify Activators of 5'UTR Stem-Loop Driven Alpha-Synuclein mRNA Translation in H4 Neuroglioblastoma Cells. [Related pubchem assays: 1829 (Project Summary), 1814 (Primary HTS)]. It is filed as functional.
Experiment [6] can be described thus: Luminescence Cell-Based Dose Response HTS to Identify Activators of Luciferase Translation or Activity in H4 […] Cells. [Related pubchem assays: 1829 (Project Summary), 1814 (Primary HTS)]. It is filed as functional.
The target in experiment [7] is NACHT, LRR and PYD domains-containing protein 3 (Homo sapiens, UniProt Q96P20). Put plainly: NALP3 inhibitors in yeast, dose response, luminescent (AID 488799). It is filed as functional.
Experiment [8] addresses Eukaryotic translation initiation factor 4E (Mus musculus, UniProt P63073). Put plainly: eIF4E–eIF4G protein interaction inhibitors, dose response, biochemical, TR-FRET (AID 855).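 Also: potency for disrupting eIF4E binding to eIF4GI seen as loss of FRET.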 It is filed as functional.
Experiment [9] concerns the target Phosphoethanolamine/phosphocholine phosphatase (Homo sapiens, UniProt Q8TCT1). Put plainly: SAR assay for compounds that inhibit PHOSPHO1. [Related pubchem assays (depositor defined):AID1545, AID1565, AID1574].
The next experiment deals with Phosphomannomutase 2 (Homo sapiens, UniProt O15305). The experiment is described as follows: Counter screen SAR assay for PMM2 inhibitors via a fluorescence intensity assay. [Related pubchem assays (depositor defined):AID1545, AID1574]. On the technique in general: A counterscreen serves to expose hits that act by an unwanted route or on another target.
Experiment [10] concerns the target T2, Mannose-6-phosphate isomerase (Homo sapiens, UniProt P34949).
T2 sequence (P34949 whole entry): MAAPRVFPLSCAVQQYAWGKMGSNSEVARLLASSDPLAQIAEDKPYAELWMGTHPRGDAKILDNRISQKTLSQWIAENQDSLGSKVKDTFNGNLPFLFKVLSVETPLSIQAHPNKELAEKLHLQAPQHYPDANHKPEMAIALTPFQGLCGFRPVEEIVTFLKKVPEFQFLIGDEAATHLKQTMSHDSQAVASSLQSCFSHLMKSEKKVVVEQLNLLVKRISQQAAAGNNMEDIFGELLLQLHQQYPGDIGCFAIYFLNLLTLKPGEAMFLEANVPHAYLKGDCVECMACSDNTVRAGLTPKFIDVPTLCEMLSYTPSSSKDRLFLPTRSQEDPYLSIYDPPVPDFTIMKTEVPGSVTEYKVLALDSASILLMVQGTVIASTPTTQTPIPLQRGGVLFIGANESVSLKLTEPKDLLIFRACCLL
The experiment is described as follows: PMI enzyme inhibitors, confirmation, biochemical, fluorescence intensity (AID 1535).

For experiment [11], the target named is T3, Neuropeptides B/W receptor type 1 (Homo sapiens, UniProt P48145).
T3 sequence (P48145 whole entry): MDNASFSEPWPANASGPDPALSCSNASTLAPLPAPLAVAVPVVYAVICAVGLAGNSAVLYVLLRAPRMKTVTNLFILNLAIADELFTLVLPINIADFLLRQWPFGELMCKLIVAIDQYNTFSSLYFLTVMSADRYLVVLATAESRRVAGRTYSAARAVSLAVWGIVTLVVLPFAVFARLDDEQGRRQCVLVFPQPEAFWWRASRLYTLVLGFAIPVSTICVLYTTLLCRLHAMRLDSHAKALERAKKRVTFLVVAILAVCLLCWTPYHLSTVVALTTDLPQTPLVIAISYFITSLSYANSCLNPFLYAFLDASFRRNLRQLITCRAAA
Put plainly: GPR7 antagonist potency, late-stage follow-up, cell-based, fluorescence, dose response (AID 463251). It is filed as functional.

The target of experiment [12] is Melanin-concentrating hormone receptor 1 (Homo sapiens, UniProt Q99705). The experiment is described as follows: Late-stage fluorescence-based counterscreen for antagonists of the G-protein coupled receptor 7 (GPR7): cell-based dose response assay to identify antagonists of the melanin-concentrating hormone receptor 1 (MCHR1). [Related pubchem assays (depositor defined):AID1861, AID1880, AID1952, AID2148, AID2251, AID2257, AID485339]. It is filed as functional.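 Also: stimulated with 30 nM MCH peptide agonist.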

Experiment [13] addresses T4, Voltage-gated N-type calcium channel alpha-1B subunit/Amyloid beta A4 precursor protein-binding family A member 1 (Homo sapiens, UniProt Q00975+Q02410). The experiment is described as follows: disruptors of Mint-PDZ/N-type channel peptide interaction – biochemical, HTRF, set 2, SAR follow-up (AID 434980). It is filed as functional. Background: TR-FRET usually uses a lanthanide donor and a delayed reading to cut background.

The target of experiment [14] is T4, Voltage-gated N-type calcium channel alpha-1B subunit/Amyloid beta A4 precursor protein-binding family A member 1. Put plainly: disruptors of Mint-PDZ/N-type channel peptide interaction – biochemical, HTRF, SAR follow-up (AID 2489). It is filed as functional.
A further experiment addresses T5, Bcl-2-like protein 10 (Homo sapiens, UniProt Q9HD36).
T5 sequence (Q9HD36 whole entry): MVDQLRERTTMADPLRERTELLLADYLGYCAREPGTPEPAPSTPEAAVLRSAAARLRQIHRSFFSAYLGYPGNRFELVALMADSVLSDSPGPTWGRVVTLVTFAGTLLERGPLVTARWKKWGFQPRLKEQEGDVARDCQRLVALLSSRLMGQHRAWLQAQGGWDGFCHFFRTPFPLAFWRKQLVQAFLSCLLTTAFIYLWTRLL
The experiment is described as follows: displacers of TR3 peptide from Bcl-B, primary screen, selectivity assay for Bfl-1 inhibitor project, biochemical, fluorescence polarization, FITC-TR3 peptide (AID 748).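 Also: fluorescence polarization from a fluorescein-labelled TR3 peptide binding purified Bcl-B.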

Experiment [15] can be described thus: NIH-3T3 fibroblast cytotoxicity, dose response, cytotoxicity control, cell-based, fluorescence, Alamar Blue, secondary assay (AID 2327).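 Also: NIH-3T3 mouse fibroblasts cultured with fluconazole at 8 µg/mL.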 It is filed as functional.
Experiment [16] in a line: human group III sPLA2 inhibitors, dose response, biochemical, QFRET, IC50 (AID 743457).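 Also: green fluorescence rise as the enzyme cleaves BODIPY PC-A2 in liposomes; potency for inhibition of the enzyme.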
Experiment [17] can be described thus: THP-1 cell cytotoxicity, dose response, cytotoxicity control for Vif-APOBEC3G degradation inhibitor project, THP-1 cells (AID 1117359). It is filed as functional. The conditions noted are these: Human immunodeficiency virus 1, THP-1.
Experiment [18] is described as follows: C. albicans growth with fluconazole, confirmation, fluorescence, retest (AID 2467). It is filed as functional, cell-based.
In the next experiment the target is T6, Protein Tat (Human immunodeficiency virus type 1 group M subtype B (isolate HXB2)(HIV-1), UniProt P04608).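 Also: tat binding to TAR RNA read out by fluorescence polarization.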
T6 sequence (P04608 whole entry): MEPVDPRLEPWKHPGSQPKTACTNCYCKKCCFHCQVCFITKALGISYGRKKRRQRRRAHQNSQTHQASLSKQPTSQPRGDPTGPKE
It is filed as functional.

Experiment [19] deals with T7, Histone-lysine N-methyltransferase NSD2 (Homo sapiens, UniProt O96028).
T7 sequence (O96028 whole entry): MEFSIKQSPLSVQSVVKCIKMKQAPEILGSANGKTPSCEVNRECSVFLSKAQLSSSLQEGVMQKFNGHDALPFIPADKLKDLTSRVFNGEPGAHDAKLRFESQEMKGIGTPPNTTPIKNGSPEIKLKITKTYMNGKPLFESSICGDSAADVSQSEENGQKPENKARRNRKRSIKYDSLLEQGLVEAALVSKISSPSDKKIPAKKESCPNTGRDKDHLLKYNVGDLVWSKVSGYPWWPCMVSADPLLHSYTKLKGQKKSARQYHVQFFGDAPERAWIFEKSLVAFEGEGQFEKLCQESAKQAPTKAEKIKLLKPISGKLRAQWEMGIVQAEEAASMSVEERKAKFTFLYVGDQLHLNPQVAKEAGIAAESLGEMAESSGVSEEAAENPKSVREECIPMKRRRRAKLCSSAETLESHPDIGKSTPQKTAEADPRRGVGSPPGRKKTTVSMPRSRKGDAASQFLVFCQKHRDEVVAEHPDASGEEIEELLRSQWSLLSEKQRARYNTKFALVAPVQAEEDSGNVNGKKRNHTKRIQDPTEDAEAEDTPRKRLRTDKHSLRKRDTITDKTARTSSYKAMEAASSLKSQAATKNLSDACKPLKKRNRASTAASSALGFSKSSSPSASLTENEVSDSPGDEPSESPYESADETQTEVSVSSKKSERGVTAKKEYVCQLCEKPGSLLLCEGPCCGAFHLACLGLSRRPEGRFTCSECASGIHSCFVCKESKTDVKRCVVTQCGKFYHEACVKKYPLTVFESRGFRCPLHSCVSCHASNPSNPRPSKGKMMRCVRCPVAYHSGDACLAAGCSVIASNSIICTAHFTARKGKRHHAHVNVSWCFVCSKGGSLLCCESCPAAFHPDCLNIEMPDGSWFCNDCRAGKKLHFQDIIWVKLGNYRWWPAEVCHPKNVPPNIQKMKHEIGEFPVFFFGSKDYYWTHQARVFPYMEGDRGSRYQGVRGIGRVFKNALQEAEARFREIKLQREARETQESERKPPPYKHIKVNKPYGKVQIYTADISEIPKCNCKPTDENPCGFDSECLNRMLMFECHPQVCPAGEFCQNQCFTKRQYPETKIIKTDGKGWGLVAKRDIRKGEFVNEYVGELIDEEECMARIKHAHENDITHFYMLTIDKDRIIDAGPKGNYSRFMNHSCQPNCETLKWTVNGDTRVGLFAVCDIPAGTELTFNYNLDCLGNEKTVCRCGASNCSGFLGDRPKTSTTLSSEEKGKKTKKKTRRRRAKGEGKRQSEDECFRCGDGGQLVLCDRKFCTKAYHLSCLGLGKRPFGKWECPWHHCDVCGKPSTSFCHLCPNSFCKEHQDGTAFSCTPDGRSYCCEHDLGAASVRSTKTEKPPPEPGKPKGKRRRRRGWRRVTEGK
It is filed as biochemical.

T4 sequence (Q00975 whole entry): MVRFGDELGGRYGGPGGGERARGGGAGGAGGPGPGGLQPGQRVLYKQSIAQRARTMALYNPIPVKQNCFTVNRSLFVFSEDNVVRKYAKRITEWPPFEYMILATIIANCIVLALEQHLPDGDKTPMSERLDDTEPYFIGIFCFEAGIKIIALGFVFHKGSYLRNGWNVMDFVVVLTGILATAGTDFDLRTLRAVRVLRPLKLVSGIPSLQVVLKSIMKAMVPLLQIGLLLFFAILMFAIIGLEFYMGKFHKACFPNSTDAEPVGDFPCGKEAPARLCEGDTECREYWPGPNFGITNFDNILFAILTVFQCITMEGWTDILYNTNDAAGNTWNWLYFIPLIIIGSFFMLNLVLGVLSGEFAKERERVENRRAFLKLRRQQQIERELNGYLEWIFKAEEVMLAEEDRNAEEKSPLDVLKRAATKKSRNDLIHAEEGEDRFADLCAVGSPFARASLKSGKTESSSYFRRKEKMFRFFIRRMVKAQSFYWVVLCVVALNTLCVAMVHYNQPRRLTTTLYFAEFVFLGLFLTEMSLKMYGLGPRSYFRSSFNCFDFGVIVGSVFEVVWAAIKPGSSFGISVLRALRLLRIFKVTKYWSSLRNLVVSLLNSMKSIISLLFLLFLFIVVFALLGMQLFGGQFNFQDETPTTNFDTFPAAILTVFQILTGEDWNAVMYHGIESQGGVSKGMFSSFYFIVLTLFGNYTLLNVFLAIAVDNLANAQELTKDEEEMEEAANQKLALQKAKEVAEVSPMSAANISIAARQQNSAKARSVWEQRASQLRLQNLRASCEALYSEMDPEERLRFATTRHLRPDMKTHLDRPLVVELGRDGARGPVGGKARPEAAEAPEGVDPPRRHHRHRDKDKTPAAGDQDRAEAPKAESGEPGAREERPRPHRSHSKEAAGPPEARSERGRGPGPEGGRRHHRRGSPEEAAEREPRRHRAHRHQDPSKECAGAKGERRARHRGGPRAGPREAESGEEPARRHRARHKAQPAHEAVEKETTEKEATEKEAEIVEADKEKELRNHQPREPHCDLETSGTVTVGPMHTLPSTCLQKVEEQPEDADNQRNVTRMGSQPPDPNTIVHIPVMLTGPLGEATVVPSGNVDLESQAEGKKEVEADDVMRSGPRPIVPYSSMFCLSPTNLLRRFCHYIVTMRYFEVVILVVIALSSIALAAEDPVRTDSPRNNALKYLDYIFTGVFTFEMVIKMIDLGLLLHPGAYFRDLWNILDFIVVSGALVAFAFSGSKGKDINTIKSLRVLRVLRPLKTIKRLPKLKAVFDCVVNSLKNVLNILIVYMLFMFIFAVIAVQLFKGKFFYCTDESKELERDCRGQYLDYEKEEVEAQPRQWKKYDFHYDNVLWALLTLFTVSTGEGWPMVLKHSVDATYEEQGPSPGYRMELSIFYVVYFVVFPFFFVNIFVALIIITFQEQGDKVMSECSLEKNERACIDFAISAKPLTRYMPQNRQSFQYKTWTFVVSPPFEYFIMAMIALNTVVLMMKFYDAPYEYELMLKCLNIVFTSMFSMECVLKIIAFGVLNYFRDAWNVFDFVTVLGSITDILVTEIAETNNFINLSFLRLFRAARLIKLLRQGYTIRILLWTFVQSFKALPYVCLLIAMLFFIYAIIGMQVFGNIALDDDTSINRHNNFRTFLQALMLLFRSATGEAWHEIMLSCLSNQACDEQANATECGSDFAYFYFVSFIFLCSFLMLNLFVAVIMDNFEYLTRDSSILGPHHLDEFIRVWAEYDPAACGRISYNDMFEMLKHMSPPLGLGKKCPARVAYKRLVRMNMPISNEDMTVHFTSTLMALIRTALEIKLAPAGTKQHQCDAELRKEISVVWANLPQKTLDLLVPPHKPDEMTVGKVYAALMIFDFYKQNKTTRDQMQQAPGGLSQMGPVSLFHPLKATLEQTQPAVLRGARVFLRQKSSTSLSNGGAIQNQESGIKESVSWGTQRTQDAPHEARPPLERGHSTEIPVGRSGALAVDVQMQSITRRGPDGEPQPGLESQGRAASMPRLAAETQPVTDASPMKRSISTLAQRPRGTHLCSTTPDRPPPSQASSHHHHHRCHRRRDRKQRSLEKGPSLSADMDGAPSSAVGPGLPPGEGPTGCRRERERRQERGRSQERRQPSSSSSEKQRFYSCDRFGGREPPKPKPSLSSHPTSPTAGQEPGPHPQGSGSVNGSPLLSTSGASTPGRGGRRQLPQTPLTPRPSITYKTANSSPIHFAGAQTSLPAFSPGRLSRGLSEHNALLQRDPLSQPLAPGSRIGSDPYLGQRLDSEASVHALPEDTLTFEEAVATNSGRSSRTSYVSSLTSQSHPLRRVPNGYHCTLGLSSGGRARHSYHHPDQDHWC
T4 sequence (Q02410 whole entry): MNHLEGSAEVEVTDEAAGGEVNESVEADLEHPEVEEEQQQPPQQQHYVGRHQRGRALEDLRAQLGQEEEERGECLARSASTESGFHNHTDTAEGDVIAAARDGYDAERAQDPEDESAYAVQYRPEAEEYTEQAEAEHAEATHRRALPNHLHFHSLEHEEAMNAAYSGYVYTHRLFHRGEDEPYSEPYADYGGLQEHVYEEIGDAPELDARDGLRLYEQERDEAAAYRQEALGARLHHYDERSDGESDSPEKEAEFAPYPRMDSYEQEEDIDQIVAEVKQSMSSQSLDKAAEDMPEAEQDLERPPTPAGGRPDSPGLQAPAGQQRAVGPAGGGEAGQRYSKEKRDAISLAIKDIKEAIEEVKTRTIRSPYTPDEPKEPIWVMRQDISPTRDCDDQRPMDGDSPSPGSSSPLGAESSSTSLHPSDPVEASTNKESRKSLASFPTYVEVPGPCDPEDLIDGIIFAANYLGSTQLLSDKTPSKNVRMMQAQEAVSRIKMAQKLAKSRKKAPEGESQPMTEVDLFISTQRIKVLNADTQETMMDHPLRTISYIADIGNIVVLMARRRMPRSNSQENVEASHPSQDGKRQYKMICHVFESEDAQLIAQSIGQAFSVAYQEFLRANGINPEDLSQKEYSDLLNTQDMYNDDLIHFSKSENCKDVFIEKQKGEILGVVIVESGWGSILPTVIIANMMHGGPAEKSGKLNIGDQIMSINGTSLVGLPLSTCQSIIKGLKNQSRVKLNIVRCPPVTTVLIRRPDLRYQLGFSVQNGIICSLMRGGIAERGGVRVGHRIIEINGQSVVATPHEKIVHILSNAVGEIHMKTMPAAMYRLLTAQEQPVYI
Phosphoethanolamine/phosphocholine phosphatase, sequence (Q8TCT1 whole entry): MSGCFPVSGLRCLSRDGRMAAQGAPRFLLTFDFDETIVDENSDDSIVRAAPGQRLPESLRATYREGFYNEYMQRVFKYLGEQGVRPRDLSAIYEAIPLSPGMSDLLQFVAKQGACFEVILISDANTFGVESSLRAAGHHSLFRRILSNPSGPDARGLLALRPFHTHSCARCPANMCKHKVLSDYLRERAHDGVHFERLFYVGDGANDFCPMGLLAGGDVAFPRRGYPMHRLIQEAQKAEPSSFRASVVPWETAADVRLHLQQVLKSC
Melanin-concentrating hormone receptor 1, sequence (Q99705 whole entry): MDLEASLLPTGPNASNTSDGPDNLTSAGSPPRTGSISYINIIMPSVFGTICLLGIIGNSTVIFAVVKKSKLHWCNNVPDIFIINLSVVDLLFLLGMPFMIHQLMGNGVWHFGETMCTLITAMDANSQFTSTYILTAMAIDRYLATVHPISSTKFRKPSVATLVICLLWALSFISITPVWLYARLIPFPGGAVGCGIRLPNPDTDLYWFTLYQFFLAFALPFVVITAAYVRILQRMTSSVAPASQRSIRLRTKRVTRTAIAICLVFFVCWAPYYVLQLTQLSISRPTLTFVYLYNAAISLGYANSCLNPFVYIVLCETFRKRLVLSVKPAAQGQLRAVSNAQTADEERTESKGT
NACHT, LRR and PYD domains-containing protein 3, sequence (Q96P20 whole entry, the tested form may be a part): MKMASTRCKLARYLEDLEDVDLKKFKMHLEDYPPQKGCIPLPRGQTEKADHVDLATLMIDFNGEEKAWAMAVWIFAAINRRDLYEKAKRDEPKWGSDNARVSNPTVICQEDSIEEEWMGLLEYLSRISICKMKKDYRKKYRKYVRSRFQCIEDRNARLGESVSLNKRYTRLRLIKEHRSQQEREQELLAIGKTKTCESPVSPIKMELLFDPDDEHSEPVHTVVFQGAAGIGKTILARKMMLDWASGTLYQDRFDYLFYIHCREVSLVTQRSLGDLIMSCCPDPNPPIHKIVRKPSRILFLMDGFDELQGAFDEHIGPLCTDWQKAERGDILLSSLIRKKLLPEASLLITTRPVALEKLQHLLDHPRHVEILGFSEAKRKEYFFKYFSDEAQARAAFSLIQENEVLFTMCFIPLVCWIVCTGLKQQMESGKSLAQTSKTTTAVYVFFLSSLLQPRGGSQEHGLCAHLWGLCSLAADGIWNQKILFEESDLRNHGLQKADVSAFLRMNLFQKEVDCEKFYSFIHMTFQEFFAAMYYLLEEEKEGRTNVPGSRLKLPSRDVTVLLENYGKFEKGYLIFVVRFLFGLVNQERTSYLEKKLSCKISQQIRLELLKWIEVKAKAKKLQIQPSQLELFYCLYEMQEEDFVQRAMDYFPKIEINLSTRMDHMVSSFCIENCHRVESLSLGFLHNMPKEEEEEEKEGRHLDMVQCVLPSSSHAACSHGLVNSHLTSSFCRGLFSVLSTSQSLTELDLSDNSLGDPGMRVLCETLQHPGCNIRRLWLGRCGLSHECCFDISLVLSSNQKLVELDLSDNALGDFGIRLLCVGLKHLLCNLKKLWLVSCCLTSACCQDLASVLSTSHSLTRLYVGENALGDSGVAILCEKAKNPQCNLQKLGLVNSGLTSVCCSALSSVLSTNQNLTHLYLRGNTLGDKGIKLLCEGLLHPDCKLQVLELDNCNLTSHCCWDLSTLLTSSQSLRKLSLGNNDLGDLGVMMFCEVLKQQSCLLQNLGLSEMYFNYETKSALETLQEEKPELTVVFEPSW
Eukaryotic translation initiation factor 4E, sequence (P63073 whole entry): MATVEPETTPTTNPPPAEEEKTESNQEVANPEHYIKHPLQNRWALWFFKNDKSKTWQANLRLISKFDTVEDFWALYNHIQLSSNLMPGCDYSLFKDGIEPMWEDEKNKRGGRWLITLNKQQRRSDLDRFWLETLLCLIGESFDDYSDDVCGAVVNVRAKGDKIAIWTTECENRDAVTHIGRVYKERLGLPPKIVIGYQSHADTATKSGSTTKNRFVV

Turning to `CCS(=O)(=O)C1=NSC2=NC(=O)/C(=C\c3cc(C)n(-c4cccc(OC)c4)c3C)C(=N)N21`, the EC50 was > 53 µM (inactive) in experiment [1], > 120 µM (not active) in the experiment on H4, > 120 µM (not active) in experiment [5] and > 120 µM (not active) in [6]. The IC50 is 6.75 µM (active) in experiment [2], 5.1 µM (active) in [3] and > 99 µM (inactive) in [4].

In the case of `c1ccc(C2Nc3ccccc3C3OCCCC23)cc1` (stereo not drawn), the IC50 in experiment [7] was 7.36 µM (active).

For the compound `O=c1c2c([N+](=O)[O-])cc([N+](=O)[O-])cc2sn1-c1ccc(Br)cc1`, the IC50 is 8.14 µM (active) in experiment [8], 0.0725 µM (active) in experiment [9], 10.8 µM (active) on Phosphomannomutase 2 and 12.2 µM (active) in experiment [10].

`O=C(C1CCCCN1Cc1cccc(Cl)c1Cl)N1CCN(c2ccc([N+](=O)[O-])cc2)CC1` (stereo not drawn): the IC50 in [11] is 4.4 µM (active); in experiment [12], 3.3 µM (active).

On to `O=C(NC1CCC(c2ccccc2)CC1)c1cc(-c2ccco2)nc2ccccc12` (stereo not drawn), for which the IC50 was 25.5 µM (active) in [13] and 5.59 µM (active) in [14].

`N#C/C(C(N)=O)=c1/ccc2c(c1)N1C3=C(CCCC3)CC3CCCCC31N=2` (stereo not drawn): the IC50 at Bcl-2-like protein 10 is > 50 µM (inactive); in experiment [16] it was 72.7 µM (inactive); at Protein Tat, > 100 µM (inconclusive). Moreover, the results for the EC50 in experiment [15] and in experiment [18] were 8.74 µM (inconclusive) and 4.01 µM (active), respectively. Also, in experiment [17], the CC50 – broadly, the concentration that lowers cell viability or growth by half – was 33.5 µM (active). Moreover, the AC50 (usually the concentration giving half of the maximal activity seen) in experiment [19] was 10.2 µM (active).
